Earlier results on five molecules are cited in patent publication US10188772B2, “Drug delivery medical device” (Micell Technologies, Inc., priority 2012, dated 2019).

FKBP12, sequence (P62942 whole entry, species assumed): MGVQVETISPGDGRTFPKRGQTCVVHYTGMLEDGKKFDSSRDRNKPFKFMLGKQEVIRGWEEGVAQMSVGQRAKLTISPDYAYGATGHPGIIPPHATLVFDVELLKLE

This data set addresses FKBP12 (Homo sapiens, UniProt P62942).
On to `CO[C@H]1C[C@@H]2CC[C@@H](C)[C@@](O)(O2)C(=O)C(=O)N2CCCC[C@H]2C(=O)O[C@H]([C@H](C)C[C@@H]2CC[C@@H](OCCO)[C@H](OC)C2)CC(=O)[C@H](C)/C=C(\C)[C@@H](O)[C@@H](OC)C(=O)[C@H](C)C[C@H](C)/C=C/C=C/C=C/1C` [Everolimus, 40-O-(2-Hydroxyethyl)rapamycin], for which the FKBP12 binding was 1.8 to 2.6 nM.
Take `CC[C@@H]1/C=C(\C)C[C@H](C)C[C@H](OC)[C@H]2O[C@@](O)(C(=O)C(=O)N3CCCC[C@H]3C(=O)O[C@H](/C(C)=C/[C@@H]3CC[C@H](Cl)[C@H](OC)C3)[C@H](C)[C@@H](O)CC1=O)[C@H](C)C[C@@H]2OC` [Pimecrolimus]: the FKBP12 binding entry is reported as “about 1.2 nM”.
`C=CC[C@@H]1/C=C(\C)C[C@H](C)C[C@H](OC)[C@H]2O[C@@](O)(C(=O)C(=O)N3CCCC[C@H]3C(=O)O[C@H](/C(C)=C/[C@@H]3CC[C@@H](O)[C@H](OC)C3)[C@H](C)[C@@H](O)CC1=O)[C@H](C)C[C@@H]2OC` [Tacrolimus]: the FKBP12 binding was 0.2 to 0.4 nM.
For the molecule `CO[C@H]1C[C@@H]2CC[C@@H](C)[C@@](O)(O2)C(=O)C(=O)N2CCCC[C@H]2C(=O)O[C@H]([C@H](C)C[C@@H]2CC[C@@H](OC(=O)C(C)(CO)CO)[C@H](OC)C2)CC(=O)[C@H](C)/C=C(\C)[C@@H](O)[C@@H](OC)C(=O)[C@H](C)C[C@H](C)/C=C/C=C/C=C/1C` [Temsirolimus, 42-[3-hydroxy-2-(hydroxymethyl)-2-methylpropanoate]rapamycin], the FKBP12 binding result was “about the same as Sirolimus”.
For `CO[C@H]1C[C@@H]2CC[C@@H](C)[C@@](O)(O2)C(=O)C(=O)N2CCCC[C@H]2C(=O)O[C@H]([C@H](C)C[C@@H]2CC[C@H](n3cnnn3)[C@H](OC)C2)CC(=O)[C@H](C)/C=C(\C)[C@@H](O)[C@@H](OC)C(=O)[C@H](C)C[C@H](C)/C=C/C=C/C=C/1C` [Zotarolimus], the FKBP12 binding was 2.0 to 3.2 nM.
